Data taken from patent US20230285357A1, “COMPOSITIONS AND METHODS FOR […] CELLS” (The Regents of the University of California, priority 2020, published 2023).

Assays:
[1] = tested on: aortic cells of Osx-GfptgMgp−/− mice; experiment: Osteoblastic-lineage tracing in Osx-GfptgMgp−/− mice, FACS of aortic cells; format: in vivo, mouse; conditions: Osx-GfptgMgp−/− mice treated for 2 weeks
Procedure: Then, mice were treated with or without SB216763 for 2 weeks. […] Then, the alteration of GFP and CD31 double positive cells (GFP+CD31+) were characterized after SB216763 treatment. […] Same numbers of cells of each group were used to perform a transplantation experiment to examine the capacity of bone formation by using bone formation assay in vivo.
FACS analysis was performed as previously described. The cells were stained with fluorescein isothiocyanate (FITC)-, phycoerythrin (PE)-, or Alexa Fluor 488 (AF-488)-conjugated antibodies against CD31 and VE-cadherin (all from BD biosciences, 550274 and 562243), osterix (Santa Cruz Biotechnology, sc-22536). Nonspecific fluorochrome- and isotype-matched IgGs (BD Pharmingen) served as controls.

ectopic bone formation = experiment: Ectopic bone formation in vivo after transplantation of treated cells; set-up: species or system mouse
Procedure: To assess the functional capacity of SB216763-treated osteoblasts, they were treated with osteogenic induction media in vitro. […] A transplantation experiment was then performed to examine the capacity for bone formation using a well-established bone formation assay in vivo. This assay was adapted and eGFP positive cells were used, which were isolated from SB216763-treated Flk1-eGFP osteoblasts (FIG. 2, Part A).
The cells were then subjected to osteogenic induction media. […] Cells was transplanted into nude mice to test ectopic bone formation.
MicroCT imaging was performed at the Crump Imaging Center at UCLA. All the samples were scanned on a high-resolution, volumetric microCT scanner (CT125). The image data were acquired with the following parameters: 10 μm isotropic voxel resolution; 200 ms exposure time; 2,000 views and 5 frames per view. The microCT-generated DICOM files were used to analyze the samples and to create volume renderings of the regions of interest. The raw data files were viewed using the MicroView 3-D volume viewer and analysis tool (GE Healthcare) and AltaViewer™ Software. Additionally, images of the samples were generated using SCIRun (Scientific Computing and Imaging Institute).
All the surgeries were performed on a heated pad with a connection to a continuous flow of isoflurane. Ectopic bone formation was performed as previously described: 5×10^5 cells were mixed with 40 mg hydroxyapatite/tricalcium phosphate power (SALVIN™, ORASTRUCT-0.5 CC) and incubated in a 1 ml syringe at 37° C. in 5% CO2 overnight. After disinfection with 70% ethanol, a skin incision was made on the back of mouse. A subcutaneous pouch was formed by blunt dissection. The mixture of cells and hydroxyapatite/tricalcium phosphate was transplanted into the pouch and the incision was closed. The implants were examined by microCT imaging and histology 12 weeks after transplantation.

[2] = tested on: vascular calcification in Mgp−/− mice; experiment: Early vascular calcification in Mgp−/− mice; format: in vivo, mouse; conditions: Mgp−/− mice at 2 weeks of age, 5 ug/g daily for 2 weeks
Procedure: To examine whether SB216763 could be used for treatment of vascular calcification, the Mgp^−/− mouse was chosen, a well-known model of calcification. Mgp^−/− mice develop arterial calcification as early as postnatal day 14. At 4 weeks of age, the entire arterial vasculature is severely calcified. Two independent experiments were performed to test if SB216763 decreased calcification in Mgp^−/− mice. First, young Mgp^−/− mice at 2 weeks of age with SB216763 were treated (5 ug/g daily) for 2 weeks to determine if SB216763 prevented osteogenesis in the Mgp^−/− aortas (FIG. 5, Part A).
Mgp^+/− (B6.129S7-Mgptm1Kry/KbosJ), Col1α1^CreERT2 (B6.Cg-Tg(Col1α1-cre/ERT2)1Crm/J), GSK3β^flox/flox (B6.129(Cg)-Gsk3btm2Jrw/J) and Osx-Gfptg (B6.Cg-Tg(Sp7-tTA,tetO-EGFP/cre)1Amc/J) mice on C57BL/6J background were purchased from the Jackson Laboratory. Genotypes were confirmed by PCR, and experiments were performed with generation F4-F6. Littermates were used as wild type controls. All mice were fed a standard chow diet. The studies were reviewed and approved by the Institutional Review Board and conducted in accordance with the animal care guidelines set by the University of California, Los Angeles (UCLA). The investigation conformed to the National Research Council, Guide for the Care and Use of Laboratory Animals, Eighth Edition (Washington, D.C.: The National Academies Press, 2011).

GFP+CD31+ aortic cells = experiment: Hindlimb ischemia model with GFP+CD31+ aortic cells of treated mice; format: in vivo, mouse; conditions: mice transplanted with GFP+CD31+ aortic cells of treated group
Procedure: The capacity of GFP+CD31+ aortic cells for vascular repair was examined by using hindlimb ischemia model. […] The murine model of hindlimb ischemia was performed as previously described. A 10 mm long incision of the skin was made towards the medial thigh. The femoral artery was exposed and separated from femoral vein and nerve. Silk sutures were used to tie the proximal and the distal end of femoral artery with double knots. The cells (5×10^5) were transplanted into the surgical area and the incision was closed. Laser Doppler perfusion imaging was used to monitor the blood flow at different time points. Histology and immunostaining were used to examine the vascularization 2 weeks after transplantation.

[3] = tested on: SMAD1 or β-catenin DNA-binding; experiment: ChIP-seq of SMAD1 and β-catenin DNA-binding in treated osteoblasts; format: cell-based, mouse
Procedure: A chromatin immunoprecipitation was performed with massively parallel DNA sequencing (ChIP-seq) to examine potential alterations of SMAD1 or β-catenin DNA-binding in SB216763-treated osteoblasts.
For ChIP-seq, specific antibodies were used to enrich the genomic DNA as described before. ChIP DNA were sequenced by the Pathology Research Services at UCLA. Reads from each sample were mapped to the mouse genome using Bowtie2. Homer tool was used to detect significant enrichment of peaks with 5% false discovery rate and >4-fold over input. Motif occurrences in peaks were identified by the Homer motif discovery function. Peak annotation was performed to associate peaks with nearby genes and calculate tag densities. GO analysis and pathway enrichment of the identified genes were also performed. Specific antibodies for SMAD1 (Cell Signaling Technology, 9743) and β-catenin (R&D System, MAB2006) were used. The data were deposited in Gene Expression Omnibus (GEO) database with access number (GSE147374).

## Cn1cc(C2=C(c3ccc(Cl)cc3Cl)C(=O)NC2=O)c2ccccc21 [SB216763]
[1]
  aortic cells co-expressing GFP and CD31, FACS: decreased number of cells that co-expressed GFP and CD31
  aortic cells expressing only CD31, FACS: increased number of cells that only expressed CD31
Ectopic bone formation; SB216763-treated cells with SMAD1 overexpression or knockdown of β-catenin
  osteocytes in implants, histology and immunostaining: presence of osteocytes
Ectopic bone formation; implants with eGFP positive cells from treated osteoblasts
  osteocytes in implants, histology and immunostaining: lack of osteocytes
Ectopic bone formation; implants with eGFP positive cells from treated osteoblasts vs osteoblast controls
  ectopic bone by microCT: smaller size of ectopic bone, less trabecular formation and less bone volume
[2]
  CD31+ aortic cells co-expressing VE-cadherin and osterix, FACS: decreased number of cells that co-expressed VE-cadherin and osterix
  CD31+ aortic cells expressing only VE-cadherin, FACS: increased number of cells that only expressed VE-cadherin
  aortic mineralization, von Kossa staining: dramatic decrease in aortic mineralization
  immunoblotting of aortic tissues: decreased Cbfa1 and osterix, increased von Willebrand factor (vWF) and VE-cadherin and altered SMAD1 and β-catenin
  total aortic calcium: decrease in calcium deposition
GFP+CD31+ aortic cells
  limb blood flow, Laser Doppler perfusion imaging: higher limb blood flow
  vascular density, histology: increase in vascular density
[3]; ChIP-seq
  genes with decreased DNA-binding of SMAD1 in the regulatory regions: 8214 genes
  genes with increased β-catenin DNA-binding in the regulatory regions: 1543 genes
[3]; overlap with 519 induced genes
  genes with an increase in expression and β-catenin DNA-binding: 84 genes
[3]; overlap with 827 suppressed genes
  genes with a decrease in both gene expression and SMAD1 DNA-binding: 649 genes
